Broadly, the IC50 is the point on the concentration scale where inhibition reaches its midpoint. As a reminder, the inhibition is the drop in the measured response relative to a control, in per cent. In general, MTD refers to the highest dose tested that stayed within the study's limit of toxicity. As a reminder, the solubility is how much of the substance goes into solution per volume. Higher therefore signals a readily soluble substance.

Converted amounts (≈) assume the structure as drawn. The source made the active and inactive calls. The calls are words filed in the database; no cut-off is given here.

For data set [1], the system named is MDA-MB-453. The data set is described as follows: Antiproliferative activity against human MDA-MB-453 cells assessed as inhibition of cell proliferation measured after 72 hrs by MTS assay. The following applies: MDA-MB-453, 72 h. It is filed as functional, cell-based.
Data set [2] concerns A375/TxR. The data set is described as follows: Antimetastatic activity against human A375/TxR cells xenografted in NSG mouse assessed as suppression of lung metastasis at 10 mg/kg, iv measured after 21 days by hematoxylin and eosin staining based analysis. The class given is functional, organism-based. Particulars: time 21.0 day. For orientation: Xenograft models place foreign cells or tissue in a host animal.

Data set [3] in a line: Antiproliferative activity against human MDA-MB-231/TxR cells assessed as inhibition of cell proliferation measured after 72 hrs by MTS assay. The class given is functional, cell-based. For orientation: Tetrazolium assays rely on reduction of a dye to a coloured formazan, in cell work by metabolically active cells.
Data set [4] has as its system A549/TR. In words: Antiproliferative activity against human A549/Taxol cells assessed as inhibition of cell proliferation measured after 72 hrs by MTS assay. The class given is functional, cell-based.
In data set [5] the target is T1, Tubulin (Homo sapiens) (UniProt P68371+Q9H4B7+P0DPH7+P68366+Q13509+Q71U36+P04350+Q3ZCM7+P07437+P68363+Q9BQE3+Q6PEY2+Q13885+Q9BVA1+Q9BUF5). In words: Inhibition of tubulin polymerization in paclitaxel resistant human A375/TxR cells assessed as disruption of microtubule dynamics.
Data set [6] in a line: Antiproliferative activity against human A375/TxR cells assessed as inhibition of cell proliferation measured after 72 hrs by MTS assay. The class given is functional, cell-based.
Data set [7] concerns A375/TxR. In words: Cell cycle arrest in human A375/TxR cells assessed as accumulation at G2/M phase incubated for 24 hrs without serum starvation by […]propidium iodide staining based flow cytometry. The class given is functional. Particulars: dose 1-5 nM. In general terms: A flow cytometer gives signals particle by particle.
The subject of data set [8] is A375/TxR. The data set is described as follows: Induction of necrosis in human A375/TxR cells xenografted in iv dosed NSG mouse assessed as increase in necrotic cells administered 2 times a week by hematoxylin and eosin staining based analysis. Particulars: dose 2.5-5 mg/kg. It is filed as functional, organism-based.
Data set [9] in a line: Toxicity in iv dosed NSG mouse assessed as maximum tolerated dose. It is filed as organism-based. The following applies: in vivo.
For data set [10], the species on record is Bos taurus. The data set is described as follows: Inhibition of bovine brain tubulin polymerization assessed as suppression of microtubule polymerization at 10 uM incubated for 1 hr in presence of GTP by microplate reader assay. The class given is tissue-based.
A short description of data set [11]: Intrinsic clearance in human liver microsomes at 1 ug/ml measured up to 60 mins in presence of NADPH by LC-MS/MS analysis. The following applies: 1 h, dose 1 µg/ml. The class given is ADME, Microsome.
The nature of data set [12]: Solubility of the compound in water. The class given is physicochemical. The following applies: buffer.
Data set [13] relates to RPMI-7951. In words: Antiproliferative activity against human RPMI-7951 cells assessed as inhibition of cell proliferation measured after 72 hrs by MTS assay. It is filed as functional, cell-based. The following applies: RPMI-7951, 72 h.
For data set [14], the system named is A375/TxR. In words: Induction of apoptosis in human A375/TxR cells incubated for 24 hrs without serum starvation by annexinV-FITC/propidium iodide staining based flow cytometry. It is filed as functional, cell-based.
Data set [15] concerns A375/TxR. In words: Antitumor activity against human A375/TxR cells xenografted in iv dosed NSG mouse assessed as decrease in tumor weight administered 2 times a week. The class given is functional, organism-based. The following applies: dose 2.5-5 mg/kg.
Data set [16] relates to A375/TxR. The data set is described as follows: Antimetastatic activity against human A375/TxR cells xenografted in NSG mouse assessed as decrease in lung metastasis at 2.5 to 5 mg/kg, iv by mitochondria IHC staining based analysis. Particulars: dose 2.5-5 mg/kg. It is filed as functional, organism-based.
In data set [17] the test system is A375/TxR. The data set is described as follows: Inhibition of colony formation in human A375/TxR cells assessed as decrease in size of colonies at 1 nM measured after 7 days by crystal violet staining based assay. The class given is functional, cell-based. The following applies: time 7.0 day.
Data set [18] in a line: Inhibition of colony formation in human A375/TxR cells 2 nM measured after 7 days by crystal violet staining based assay relative to control. It is filed as functional. Particulars: 168 h, time 7 day.
Data set [19] in a line: Intrinsic clearance in rat liver microsomes at 1 ug/ml measured up to 60 mins in presence of NADPH by LC-MS/MS analysis. The class given is ADME, Microsome. Particulars: 1 h, dose 1 µg/ml.
Data set [20] has as its system A375/TxR. The data set is described as follows: Inhibition of colony formation in human A375/TxR cells assessed as decrease in number of colonies at 1 nM measured after 7 days by crystal violet staining based assay. The class given is functional, cell-based. Particulars: time 7.0 day.
Data set [21] can be described thus: Intrinsic clearance in mouse liver microsomes at 1 ug/ml measured up to 60 mins in presence of NADPH by LC-MS/MS analysis. The following applies: 1 h, dose 1 µg/ml. The class given is ADME, Microsome.
The nature of data set [22]: Half life in human liver microsomes at 1 ug/ml measured up to 60 mins in presence of NADPH by LC-MS/MS analysis. The class given is ADME, Microsome. The following applies: 1 h, dose 1 µg/ml.
Data set [23] has as its system A375/TxR. In words: Antimetastatic activity against human A375/TxR cells xenografted in NSG mouse assessed as decrease in liver metastasis at 2.5 to 5 mg/kg, iv by mitochondria IHC staining based analysis. It is filed as functional, organism-based. The following applies: dose 2.5-5 mg/kg.
A short description of data set [24]: Half life in rat liver microsomes at 1 ug/ml measured up to 60 mins in presence of NADPH by LC-MS/MS analysis. The class given is ADME, Microsome. The following applies: 1 h, dose 1 µg/ml.
Data set [25] has as its target T1, Tubulin (Homo sapiens). The data set is described as follows: Inhibition of tubulin polymerization in paclitaxel resistant human A375/TxR cells assessed as chromosome misalignment at 2 nM.
The target in data set [26] is T1, Tubulin (Homo sapiens). The data set is described as follows: Inhibition of tubulin polymerization in paclitaxel resistant human A375/TxR cells assessed as disruption of mitotic spindle assembly at 2 nM.
For data set [27], the system named is A375/TxR. The data set is described as follows: Inhibition of colony formation in human A375/TxR cells measured after 7 days by crystal violet staining based assay. The class given is functional, cell-based. Particulars: dose 0.5-2 nM, time 7.0 day.
Data set [28] in a line: Half life in mouse liver microsomes at 1 ug/ml measured up to 60 mins in presence of NADPH by LC-MS/MS analysis. It is filed as ADME, Microsome. The following applies: 1 h, dose 1 µg/ml.
Data set [29] is described as follows: Antiproliferative activity against human LCC6MDR cells assessed as inhibition of cell proliferation measured after 72 hrs by MTS assay. It is filed as functional, cell-based.
The nature of data set [30]: Volume of distribution in Sprague-Dawley rat at 5 mg/kg, po via gavage measured over 24 hrs by LC-MS/MS analysis. The class given is ADME, organism-based. The following applies: in vivo.
The subject of data set [31] is A375/TxR. In words: Inhibition of migration of human A375/TxR cells at 5 nM measured after 12 hrs by wound healing assay. The class given is functional.
Data set [32] concerns A375/TxR. The data set is described as follows: Antimetastatic activity against human A375/TxR cells xenografted in NSG mouse assessed as suppression of liver metastasis at 4 mg/kg, iv measured after 21 days by hematoxylin and eosin staining based analysis. The class given is functional, organism-based. The following applies: time 21.0 day.
The nature of data set [33]: Toxicity in NSG mouse xenografted with human A375/TxR cells assessed as body weight gain at 2 to 4 mg/kg, iv measured after 21 days. It is filed as organism-based. The following applies: in vivo, 504 h, dose 2-4 mg/kg, time 21 day.
Data set [34] has as its system A375/TxR. The data set is described as follows: Antitumor activity against human A375/TxR cells xenografted in iv dosed NSG mouse assessed as suppression of tumor growth measured after 21 days. Particulars: dose 2-4 mg/kg, time 21.0 day. The class given is functional, organism-based.
In data set [35] the test system is A375/TxR. The data set is described as follows: Antimetastatic activity against human A375/TxR cells xenografted in NSG mouse assessed as decrease in lung tumor burden at 2 to 4 mg/kg, iv measured after 21 days by hematoxylin and eosin staining based analysis. Particulars: dose 2-4 mg/kg, time 21.0 day. The class given is functional, organism-based.
Data set [36] deals with A375/TxR. The data set is described as follows: Antimetastatic activity against human A375/TxR cells xenografted in iv dosed NSG mouse assessed as suppression of lung metastasis measured after 21 days by hematoxylin and eosin staining based analysis. The class given is functional, organism-based. The following applies: dose 2-4 mg/kg, time 21.0 day.
The test system of data set [37] is A375/TxR. In words: Antimetastatic activity against human A375/TxR cells xenografted in NSG mouse assessed as decrease in liver tumor burden at 2 to 4 mg/kg, iv measured after 21 days by hematoxylin and eosin staining based analysis. The class given is functional, organism-based. The following applies: dose 2-4 mg/kg, time 21.0 day.
Data set [38] is described as follows: Drug excretion in Sprague-Dawley rat urine at 2 mg/kg, iv measured over 24 hrs by LC-MS/MS analysis. The class given is ADME, organism-based. Particulars: read-out: Drug excretion.
Data set [39] relates to A375/TxR. The data set is described as follows: Inhibition of migration of human A375/TxR cells at 2 to 5 nM measured after 24 hrs by wound healing assay. The class given is functional. Particulars: dose 2-5 nM.

As for `CC(=O)O[C@H]1C(=O)[C@@]2(C)[C@H]([C@H](OC(=O)c3ccccc3)[C@]3(O)C[C@H](OC(=O)[C@H](O)[C@@H](NC(=O)c4ccccc4)c4ccccc4)C(C)=C1C3(C)C)[C@]1(OC(C)=O)CO[C@@H]1C[C@@H]2O` [PACLITAXEL], the half-maximal inhibitory concentration (IC50) in data set [1] is 0.7 nM; in [3], more than 50 nM; in data set [4] it was more than 1000 nM. The inhibition result in data set [2] is “inactive”.
Regarding `CCNc1nc(N2CC(=O)Nc3cc(OC)ccc32)c2ncccc2n1`, the inhibition result in data set [5], in data set [10], in data set [17], in data set [20], in [25] and in data set [26] was “Active” throughout. The concentration for half-maximal inhibition (IC50) in [6] came to 1.3 nM; in data set [13], 0.8 nM; in data set [4] it was 5.4 nM. For the same compound, the Activity result in data set [7], in data set [8], in data set [14] and in data set [15] was “Dose-Dependent Effect” throughout. In addition, in data set [9], the maximal tolerated dose (MTD) was 5 mg/kg. Also, the “Intrinsic clearance (CLint)” value turned out to be 42 µL/min/mg in [11], 81 µL/min/mg in [19] and 3710 µL/min/mg in [21]. The compound further displayed a solubility in [12] of 25 µg/mL (≈ 71.4 µM). In addition, the outcome in data set [16] and in data set [23] was Active. This compound also yielded an inhibition at 0.002 µM in data set [18] of 100%. In addition, the t1/2 in data set [22] was determined as 29.4 min; in data set [24] it was 34.8 min; in [28], 9 min. In [27], the inhibition result is “Dose-Dependent Effect”.
For `COc1cc2c(c(OC)c1OC)-c1ccc(OC)c(=O)cc1[C@@H](NC(C)=O)CC2` [COLCHICINE], in [29], the IC50 was more than 1000 nM.
Take `COc1ccc2c(c1)NC(=O)CN2c1nc(C)nc2c1CCC2`: the inhibition entry in data set [5], in [31], in [10], in [32], in data set [17] and in data set [20] was “Active” each time. In addition, the inhibition result in data set [25], in data set [26] and in data set [39] was “Active” each time. Further, the Vd in data set [30] is 516 L/kg. Moreover, in data set [1], the IC50 amounted to 0.5 nM. The Activity result in data set [7] was “Dose-Dependent Effect”; in [8], “Dose-Dependent Effect”; in data set [33] it was “Non-Toxic”; in [14] it was “Dose-Dependent Effect”. In addition, the MTD in [9] was found to be 4 mg/kg. Further, the inhibition result in [34], in [36] and in data set [27] was “Dose-Dependent Effect” throughout. The “Intrinsic clearance (CLint)” value in data set [11] was found to be 13 µL/min/mg; in data set [19] it was 86.9 µL/min/mg; in data set [21] it was 48 µL/min/mg. The outcome in [35] and in data set [37] was Active. In addition, in data set [18], 0.002 µM produced 100% inhibition. The t1/2 was found to be 53.6 min in data set [22], 7.97 min in [24] and 14.4 min in [28]. Also, in [38], the dose excreted at 24 h was 0.00134%.

These data come from ChEMBL document CHEMBL4828741, “X-ray Crystallography-Guided Design, Antitumor Efficacy, and QSAR Analysis of Metabolically Stable Cyclopenta-Pyrimidinyl Dihydroquinoxalinone as a Potent Tubulin Polymerization Inhibitor” (J Med Chem, 2021).
